Patent US12390447B2, “Sirtuin 6 protein deacylase (SIRT6) activators” (Wisconsin Alumni Research Foundation, priority 2019, dated 2025)

Legend:
[1] = Micelle formation with fluorescent membrane probe diphenylhexatriene (DPH); type: physicochemical
[2] = molecular target: SIRT6 (Homo sapiens, UniProt Q8N6T7); test: Steady-state kinetic analysis of SIRT6 deacetylation (Michaelis-Menten); type: biochemical; conditions: in the presence of 100 μM CL4, 50 μM TTNPB, 50 μM LPA or 50 μM LGly
Experimental: (§1) FIGS. 1A-F illustrate the identification of novel SIRT6 activators. (1A) Compound libraries BML-2803, BML-2800, and an additional set of 178 molecules were screened at 100 μM for their ability to stimulate SIRT6 (1 μM) deacetylation of H3K9ac peptide (20 μM) in the presence of 0.5 mM NAD^+. SIRT6 activity was measured by HPLC quantification of H3K9ac and deacetylated product (inset) and fold activations relative to DMSO control were determined and compiled. (1B) Fold-activation of SIRT6 (1 μM) determined in the presence of either 0-400 μM CL4, 0-150 μM TTNPB, 0-100 μM Lysophosphatidic acid (LPA), or 0-200 μM linoleoylglycine (LGly). Maximum fold-activation and EC50 determined by sigmoidal curve fit. […] Constants Km, H3K9ac and kcat were determined by fitting data to Michaelis-Menten equation. (1D) Fold-activations of SIRT1 (0.1 μM), SIRT2 (0.2 μM), SIRT3 (1 μM), SIRT5 (2 μM), and SIRT6 (1 μM) determined in the presence of CL4 (100 μM), TTNPB (50 μM), and LPA (50 μM) relative to DMSO control against 20 μM H3K9ac peptide and 0.5 mM NAD^+. […]
FIGS. 2A-D show results characterizing SIRT6 activator CL5D. […] (2B) SIRT6 demyristoylase activity determined in the presence of 0-25 μM H3K9myr peptide, 0.5 mM NAD^+ and 5% DMSO (•), 12.5 μM CL5D (▪), 25 μM CL5D (♦), and 50 μM CL5D (▴). […]

[3] = molecular target: T1, SIRT2 (Homo sapiens, UniProt Q8IXJ6); test: SIRT2 deacetylase activity against H3K9ac peptide; type: biochemical
T1 sequence (Q8IXJ6 1-389): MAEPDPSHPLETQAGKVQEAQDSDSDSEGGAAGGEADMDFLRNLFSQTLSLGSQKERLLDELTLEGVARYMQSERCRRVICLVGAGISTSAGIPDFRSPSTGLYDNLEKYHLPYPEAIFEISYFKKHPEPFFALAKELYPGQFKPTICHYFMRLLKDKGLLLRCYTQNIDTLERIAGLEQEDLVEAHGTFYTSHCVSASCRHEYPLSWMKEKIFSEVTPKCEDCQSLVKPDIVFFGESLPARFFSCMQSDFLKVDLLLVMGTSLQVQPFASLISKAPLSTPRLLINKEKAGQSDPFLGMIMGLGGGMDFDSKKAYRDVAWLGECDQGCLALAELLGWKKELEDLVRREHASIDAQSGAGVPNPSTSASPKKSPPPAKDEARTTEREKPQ
Experimental: as §1
All sirtuin deacylation assays were carried out at 37° C. in 20 mM potassium phosphate pH 7.5 with 0.5 mM NAD^+, 10% DMSO, and 20 μM H3K9ac or H3K9myr peptides, unless otherwise noted in legend, and quenched by the addition of 2% TFA final. […] The product and substrate peaks were quantified and ratio of these allowed for quantification of product formation. […]

Chain of SIRT6 (Q8N6T7 whole entry): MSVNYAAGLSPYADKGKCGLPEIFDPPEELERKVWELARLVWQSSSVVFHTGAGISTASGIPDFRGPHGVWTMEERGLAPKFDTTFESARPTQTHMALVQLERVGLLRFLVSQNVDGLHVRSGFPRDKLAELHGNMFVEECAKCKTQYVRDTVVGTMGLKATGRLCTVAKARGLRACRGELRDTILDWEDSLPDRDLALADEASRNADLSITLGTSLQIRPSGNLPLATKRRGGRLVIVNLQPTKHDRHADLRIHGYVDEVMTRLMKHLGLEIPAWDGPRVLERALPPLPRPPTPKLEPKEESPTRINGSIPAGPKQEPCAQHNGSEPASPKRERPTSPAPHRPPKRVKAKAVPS

Compound	micelle formation (in words) [1]	kcat [2]	specificity for SIRT6 over SIRT2 ([3]; CL4 100 μM, TTNPB 50 μM, LPA 50 μM)	concentration at which micelle formation was observed [1]	SIRT2 deacetylase activity at high activator concentration ([3]; 400 μM compound)
O=C(O)c1ccc2c(c1)C(=O)N(c1ccc(NC(=O)c3ccc(Cl)cc3Cl)c(Cl)c1)C2=O [CL-4, 2-(3-chloro-4-(2,4-dichlorobenzamido)phenyl)-1,3-dioxoisoindoline-5-carboxylic acid]	not observed to form micelles	1.5 ± 0.3 s^−1 × 10^−3	greater than 19 fold		
CCCCC/C=C\C/C=C\CCCCCCCC(=O)NCC(=O)O [N-Linoleoylglycine, linoleoyl-glycine, reference compound]		2.8 ± 0.1 s^−1 × 10^−3		> 300 µM	
O=C(O)c1ccc2c(c1)C(=O)N(c1ccc(N(C(=O)c3c(Cl)cc(Cl)cc3Cl)C(=O)c3c(Cl)cc(Cl)cc3Cl)c(Cl)c1)C2=O [CL-5D, 2-(3-chloro-4-(2,4,6-trichloro-N-(2,4,6-trichlorobenzoyl)benzamido)phenyl)-1,3-dioxoisoindoline-5-carboxylic acid]					inhibited
